The values that follow come from PMC12867150, “A fungi-derived cyclic peptide enhances Th9-mediated antitumor immunity by targeting ZAP70 and SREBP1” (The Journal of Clinical Investigation, 2025).

Data set [1] concerns lipid species of Th9 cells. Nature of the data set: Untargeted lipidomics of Th9 cells (Figure 6B). The settings on record: day 4; result in words. In kind it is cell-based, mouse. As to the method:
Comprehensive lipidomic profiling was performed using a liquid chromatography–mass spectrometry (LC-MS) platform. Briefly, samples were first subjected to protein precipitation and impurity removal to ensure metabolite integrity. Lipid species were then extracted using a solvent-based protocol optimized for broad lipid class coverage. LC-MS analysis was conducted in both positive and negative ionization modes to maximize lipid detection breadth. Mass spectrometry data, including MS and MS/MS spectra, were acquired using a high-resolution instrument. Lipid identification and quantification were performed using LipidSearch software (Thermo Fisher Scientific), which generated a lipid expression matrix for downstream statistical and pathway analysis.

Data set [2] is described as follows: Body weight after ACT (S1A). The following applies: EpA-Th9 therapy vs control; result in words. In kind it is in vivo, mouse. As to the method:
(§1) C57BL/6 mice were subcutaneously injected with 5 × 10^5 B16-OVA melanoma cells. Five days after tumor implantation, mice received an intravenous infusion of 2 × 10^6 in vitro–differentiated Th9 cells (cultured for 5 days), which were derived from OT-II CD45.1 donor mice, accompanied by 4 × 10^5 OVA peptide–pulsed DCs via the tail vein. To enhance T cell engraftment and facilitate lymphodepletion, a single intraperitoneal injection of cyclophosphamide (200 mg/kg, Sigma, catalog C0768) was administered 1 day prior to T cell transfer. Mice were euthanized at designated time points for the collection and analysis of spleens, tumor-draining lymph nodes, and tumor tissues.
Days after ACT Days after ACT
Figure S1. EpA enhances immune responses.
(A) Body weight of mice after ACT in PBS, control, and EpA-treated groups. (B) Serum IL-6 levels after ACT, measured by ELISA on days 5, 10, 15, and 20. (C–E) Representative flow-cytometric plots showing transferred CD45.1⁺ OT-II Th9 cells in spleens (C), tumor-draining lymph nodes (LNs) (D), and tumors (E); frequencies Figure S1 and absolute numbers of CD45.1⁺ OT-II Th9 cells in LNs are quantified in (D). (F–
I) Representative flow-cytometric plots of endogenous CD4⁺ and CD8⁺ T cells in spleens (F), LNs (G), and tumors (H); frequencies and absolute numbers of endogenous CD4⁺ (G) and CD8⁺ (I) T cells in LNs are quantified. […]

Data set [3] concerns natural killer (NK) cells. Nature of the data set: Flow cytometry of NK cells (S1L-M). The data set is classed as in vivo, mouse. Details: key to Frequencies of NK in Spleen / Frequencies of NK in LN: % of cells. The settings on record: for Frequencies of NK in LN: Supplemental Figure 1M left; for number of NK in LN: Supplemental Figure 1M right; for NK (NK1.1) gate number: representative flow plot; for Frequencies of NK in Spleen: Supplemental Figure 1L left; for number of NK in Spleen: Supplemental Figure 1L right. As to the method:
as §1
Details regarding staining panels (human and mouse), reagents (including clones and catalog numbers), acquisition settings, compensation/controls, and analysis procedures are provided in Supplemental Methods. […]
Figure S1. EpA enhances immune responses. […]
(L and M) Representative plots, frequencies, and total numbers of natural killer (NK) cells in spleens (L) and LNs (M). Data in (A–M) are shown as mean ± SEM from n = 4 mice per group. Statistical analysis was performed using two-way ANOVA with Tukey’s post hoc test (A), one-way ANOVA with Tukey’s post hoc test (B) or two-tailed unpaired Student’s t-test (D and G–M). ns, not significant. *p < 0.05, **p < 0.01, ****p < 0.0001.
(also on this page, place not known: Mouse weight (g) CtrlEpA CtrlEpA CtrlEpA0 I CD45.1+ T cells (%) CtrlEpA CD4+ T cells (%) CtrlEpA CtrlEpA CtrlEpA FSC CD8 CD8 FSC FSC FSC BNumber of CD45.1+ T cells (×103 per mgĎ Number of CD4+ T cells (×104 per mgĎ DC (%)NK cells (%) NK cells (%) DC (%) Number of DC (×103 per mg) Number of NK cells (×105) Number of NK cells (×103 per mg) Number of DC (×105) FSC FSC FSC CD8 CtrlEpA CtrlEpA CtrlEpA CD8+ T cells (%) Number of CD8+ T cells (×104 per mgĎ nsns ns nsns ns 40 IL-6 (pg/ml))

For anteiso-C15 Leu7 surfactin [EpA], the lipid species result in data set [1] is on record as “global reduction in lipid species”. Also, in data set [2], the body weight result was “No significant differences”. Further, the “Frequencies of NK in LN” value came to 1.5 in data set [3] (LN, replicate 1); 1.56 in data set [3] (LN, replicate 2); 7.14 in data set [3] (LN, replicate 3); 7.79 in data set [3] (LN, replicate 4). For the same substance, the “number of NK in LN” value in data set [3] (LN, replicate 1) amounted to 2211.77; in data set [3] (LN, replicate 2), 2015.49; in data set [3] (LN, replicate 3) it was 5620.7; in data set [3] (LN, replicate 4) it was 5844.48. Moreover, the “NK (NK1.1) gate number” value in data set [3] (LN, Figure S1M) is listed as 1.56; in data set [3] (Spleen, Figure S1L), 14.2. Further, the “Frequencies of NK in Spleen” value in data set [3] (Spleen, replicate 1) was 14.2; in data set [3] (Spleen, replicate 2), 14.6; in data set [3] (Spleen, replicate 3), 14.4; in data set [3] (Spleen, replicate 4) it was 13.7. The “number of NK in Spleen” value in data set [3] (Spleen, replicate 1) worked out at 1287047; in data set [3] (Spleen, replicate 2), 1289552; in data set [3] (Spleen, replicate 3) it was 1303518; in data set [3] (Spleen, replicate 4), 1053933. For the same substance, the NK cells result in data set [3] (result in words) was “increased only in the spleen”.
